From patent US20130344157A1, “ENHANCEMENT OF THE EFFICACY OF THERAPEUTIC PROTEINS” (North-West University, priority 2007, published 2013)

Columns and labels:
blood glucose levels [1] = experiment: Decrease in % blood glucose levels after intra-ileal administration; type: in vivo, Male Sprague Dawley rats; conditions: 50 IU/kg
blood glucose levels [2] = experiment: Decrease in % blood glucose levels after intra-gastric administration; type: in vivo, Male Sprague Dawley rats; conditions: 50 IU/kg
[3] = rat, in vivo
Procedure: Male Sprague Dawley rats with a body mass of between 240 and 336 g were used as experimental in vivo model to investigate the absorption and efficacy enhancing capabilities of the current invention.
In this study, insulin was directly administered into the stomach, ileum or duodenum of the animals. […] Six animals were used for each group in the study. Rats were fasted 18 hours prior to drug administration but water was supplied ad libitum. […] The conditions under which the rats were bred and kept were 21° C. with a relative humidity of 55%, a light intensity of between 350-400 lux one meter above floor level with light cycles of 12 hours light and 12 dark and 18 air changes per minute.
Subcutaneous injection of insulin in one group was used to validate assaying procedures. The normal rat glucose and insulin profile was determined in a group that received only saline; this group acted as biological reference.
Cannulation of the artery carotis communis, ensured that sufficient blood volumes from the same rat at different time intervals could be obtained for analysis. Anaesthesia was induced by halothane and lasted for ±3 hours. All surgical procedures necessary for the cannulation of the carotis communis were carried out while the rats were under anaesthesia. […]

blood glucose levels [4] = experiment: % blood glucose decrease after intranasal administration; type: in vivo, Male Sprague Dawley rats; conditions: for Tmax of % blood glucose decrease: sampling times in minutes
Procedure: The cannulation of the carotis communis artery for the collection of blood samples was also performed as described in Example 1 as was the determination of plasma levels and blood glucose levels.

Substance: Insulin in saline: Control: recombinant human insulin (Sigma-Aldrich) in saline solution without any enhancing agent
- AUC, decrease in the % of blood glucose levels (blood glucose levels [1]): 13.81
- Tmax, decrease in the % of blood glucose levels (blood glucose levels [1]): 10 min
- AUC, decrease in the % of blood glucose levels (blood glucose levels [2]): 275.5
- Tmax, decrease in the % of blood glucose levels (blood glucose levels [2]): 30 min
- Tmax [3]: 5 min
- AUC of % blood glucose decrease (blood glucose levels [4]; 8 IU/kg): 46
- Cmax of % blood glucose decrease (blood glucose levels [4]; 8 IU/kg): 10.03%
- Tmax of % blood glucose decrease (blood glucose levels [4]; 8 IU/kg): 15
- % blood glucose decrease (blood glucose levels [4]; 8 IU/kg, time 0 min): 0%
- % blood glucose decrease (blood glucose levels [4]; 8 IU/kg, time 5 min): −1.18%
- % blood glucose decrease (blood glucose levels [4]; 8 IU/kg, time 10 min): 5.58%
- % blood glucose decrease (blood glucose levels [4]; 8 IU/kg, time 15 min): 10.033%
- % blood glucose decrease (blood glucose levels [4]; 8 IU/kg, time 30 min): 5.27%
- % blood glucose decrease (blood glucose levels [4]; 8 IU/kg, time 60 min): 3.47%
- % blood glucose decrease (blood glucose levels [4]; 8 IU/kg, time 120 min): 2.05%
- % blood glucose decrease (blood glucose levels [4]; 8 IU/kg, time 180 min): −26.58%
- AUC of % blood glucose decrease (blood glucose levels [4]; 12 IU/kg): 32.2
- Cmax of % blood glucose decrease (blood glucose levels [4]; 12 IU/kg): 6.48%
- Tmax of % blood glucose decrease (blood glucose levels [4]; 12 IU/kg): 5
- % blood glucose decrease (blood glucose levels [4]; 12 IU/kg, time 0 min): 0%
- % blood glucose decrease (blood glucose levels [4]; 12 IU/kg, time 5 min): 6.48%
- % blood glucose decrease (blood glucose levels [4]; 12 IU/kg, time 10 min): −0.08%
- % blood glucose decrease (blood glucose levels [4]; 12 IU/kg, time 15 min): −4.4%
- % blood glucose decrease (blood glucose levels [4]; 12 IU/kg, time 30 min): −8.32%
- % blood glucose decrease (blood glucose levels [4]; 12 IU/kg, time 60 min): −13.98%
- % blood glucose decrease (blood glucose levels [4]; 12 IU/kg, time 120 min): −30.7%
- % blood glucose decrease (blood glucose levels [4]; 12 IU/kg, time 180 min): −40.55%
